Laboratory results taken from PMC4763238, “Resveratrol induces autophagy by directly inhibiting mTOR through ATP competition” (Scientific Reports, 2016).

Target: T1, mTOR (Homo sapiens, UniProt P42345)
T1 construct: GST-tagged recombinant fragment mTOR, some regulatory domains deleted, intact kinase domain; also immunoprecipitated full-length HA-mTOR
Experiment: in vitro kinase assay (GST-S6K or 4E-BP1 phosphorylation), with ATP competition and a resistant mutant
Type: biochemical

T1 sequence (P42345 1360-2549): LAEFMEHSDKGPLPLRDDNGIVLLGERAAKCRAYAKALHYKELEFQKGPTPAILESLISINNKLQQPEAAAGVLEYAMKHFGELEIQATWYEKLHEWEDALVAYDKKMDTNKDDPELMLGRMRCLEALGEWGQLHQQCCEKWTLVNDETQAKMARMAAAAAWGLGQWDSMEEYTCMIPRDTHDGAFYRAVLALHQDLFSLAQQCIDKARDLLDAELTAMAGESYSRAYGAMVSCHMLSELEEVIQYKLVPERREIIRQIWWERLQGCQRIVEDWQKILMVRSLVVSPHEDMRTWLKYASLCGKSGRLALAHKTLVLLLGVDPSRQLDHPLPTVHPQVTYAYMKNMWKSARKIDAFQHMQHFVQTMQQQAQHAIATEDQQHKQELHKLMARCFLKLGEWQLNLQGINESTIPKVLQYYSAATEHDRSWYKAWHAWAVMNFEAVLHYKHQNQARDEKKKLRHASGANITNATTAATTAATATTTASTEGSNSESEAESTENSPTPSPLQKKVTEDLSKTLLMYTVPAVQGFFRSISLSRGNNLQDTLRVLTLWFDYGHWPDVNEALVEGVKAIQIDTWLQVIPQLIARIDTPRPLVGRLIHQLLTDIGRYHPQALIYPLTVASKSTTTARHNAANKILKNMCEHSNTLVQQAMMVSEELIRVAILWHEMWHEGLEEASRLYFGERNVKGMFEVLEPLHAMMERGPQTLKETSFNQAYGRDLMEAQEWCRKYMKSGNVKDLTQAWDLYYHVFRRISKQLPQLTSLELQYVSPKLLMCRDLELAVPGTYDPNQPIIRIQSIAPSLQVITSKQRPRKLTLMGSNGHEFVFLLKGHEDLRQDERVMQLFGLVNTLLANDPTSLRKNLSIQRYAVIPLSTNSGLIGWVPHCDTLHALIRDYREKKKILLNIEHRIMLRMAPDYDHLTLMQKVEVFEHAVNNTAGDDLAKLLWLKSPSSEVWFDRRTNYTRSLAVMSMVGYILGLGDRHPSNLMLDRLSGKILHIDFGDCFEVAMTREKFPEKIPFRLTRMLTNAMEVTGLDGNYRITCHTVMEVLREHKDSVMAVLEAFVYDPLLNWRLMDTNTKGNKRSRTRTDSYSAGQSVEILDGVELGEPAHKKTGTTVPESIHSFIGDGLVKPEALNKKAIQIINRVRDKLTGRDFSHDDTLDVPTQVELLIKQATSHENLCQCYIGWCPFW

`Oc1ccc(/C=C/c2cc(O)cc(O)c2)cc1` [resveratrol, 3,40,5-trihydroxy-trans-stilbene] showed an IC50 of roughly 10 µM.
